Data reported in the Deep4Chem optical property database.
Blank lines part the entries; values can stand above or below the compound they belong to.

Test: solvent given as SMILES

absorption maximum (in CN(C)C=O): 346 nm
absorption maximum (in O): 343 nm
Compound: CC[N+]1(CC)CN2C(C)=CC(C)=C(C(=O)O)C2=N1

absorption maximum (in ClCCl): 400 nm
Compound: [O-][n+]1c(/C=C/c2cccs2)nc(N2CCOCC2)c2c1CCCC2

absorption maximum (in CCO): 342 nm
Compound: O=C(c1cc(F)c(N2CCOCC2)cc1F)c1cc(F)c(N2CCOCC2)cc1F

absorption maximum (in CC#N): 394 nm
absorption maximum (in ClCCl): 400 nm
Compound: Cn1c(=O)cc(C(=O)c2ccccc2)c2sc(-c3ccc(OC(F)(F)F)cc3)cc21

absorption maximum (in CO): 381 nm
Compound: Oc1cc2ccc3cc(O)cc4ccc(c1)c2c34

absorption maximum (in CO): 290 nm
Compound: N#Cc1c(-n2nnc3c2-c2ccccc2CN(C(=O)CCN)c2ccccc2-3)n([C@H]2C[C@H](O)[C@@H](CO)O2)c2ncnc(N)c12

absorption maximum (in CO): 414 nm
Compound: CCOC(=O)CCCCCn1c2ccccc2c(=O)c2cc(I)ccc21

absorption maximum (in CC#N): 384 nm
absorption maximum (in ClCCl): 386 nm
Compound: COc1ccc(-c2cc3c(s2)c(-c2ccccc2)cc(=O)n3C)cc1

absorption maximum (in ClCCl): 365 nm
Compound: CCCCC(CC)COc1ccc2nc(-c3ccc(-c4ccc(OC)cc4)s3)sc2c1 (stereo unspecified)

absorption maximum (in C1CCOC1): 340 nm
Compound: CCC1(CC)c2cc(-c3cccs3)ccc2-c2c1c1c(c3c2C(CC)(CC)c2cc(-c4cccs4)ccc2-3)C(CC)(CC)c2cc(-c3cccs3)ccc2-1

absorption maximum (in C1CCOC1): 396 nm
Compound: CC(C)(C)c1ccc(-c2cc3cc4c(cc(-c5ccc(C(C)(C)C)cc5)p4-c4ccccc4)cc3p2-c2ccccc2)cc1 (stereo unspecified)

absorption maximum (in ClC(Cl)Cl): 456 nm
Compound: COc1ccc2c(C=C(C#N)C#N)cc3ccc4cc(C=C(C#N)C#N)c5ccc(OC)cc5c4c3c2c1

absorption maximum (in CS(C)=O): 672 nm
Compound: CCCCn1/c(=C/C=C/C2=[N+](C)c3ccccc3C2(C)C)c2cccc3cccc1c32

absorption maximum (in CC#N): 338 nm
absorption maximum (in CCCCCC): 336 nm
Compound: c1ccc2c(c1)[nH]c1ncccc12

absorption maximum (in ClCCl): 555 nm
Compound: COc1ccc(C2=C(C)C3=C(c4c(-c5ccccn5)nc5ccccn45)c4c(C)c(-c5ccc(OC)cc5)c(C)n4[B-](F)(F)[N+]3=C2C)cc1

absorption maximum (in O): 429 nm
Compound: CC(=O)c1ccn2c3c(c(-c4cc[n+](C)cc4)c2c1)CN(C)C3=O

absorption maximum (in CC#N): 655 nm
Compound: F[B-]1(F)n2c(-c3ccccc3)cc(-c3ccccn3)c2N=C2C(c3ccccn3)=CC(c3ccccc3)=[N+]21

absorption maximum (in CC#N): 578 nm
absorption maximum (in CCCCCC): 581 nm
absorption maximum (in CCOC(C)=O): 580 nm
absorption maximum (in CO): 579 nm
absorption maximum (in ClCCl): 581 nm
Compound: F[B-]1(F)n2c(NCc3ccccc3)ccc2C(c2c(Cl)cccc2Cl)=C2C=CC(NCc3ccccc3)=[N+]21

absorption maximum (in ClCCl): 528 nm
Compound: CCC1=C(C)C2=C(/C=C/Sc3ccccc3)c3c(C)c(CC)c(C)n3[B-](F)(F)[N+]2=C1C

Second part, the compound before the results:

Compound: F[B-]1(F)n2cccc2C(c2ccc(-c3c4ccccc4c(-c4ccccc4)c4ccccc34)cc2)=C2C=CC=[N+]21
absorption maximum (in CC#N): 498 nm
absorption maximum (in CCCCCC): 501 nm
absorption maximum (in CCO): 500 nm
absorption maximum (in CN(C)C=O): 502 nm
absorption maximum (in Cc1ccccc1): 505 nm
absorption maximum (in ClCCl): 502 nm

Compound: CCCCCCc1ccc(-n2c3c(c4c2c2c(n4-c4ccc(CCCCCC)cc4)-c4cccc(OC)c4NB2c2ccccc2)B(c2ccccc2)Nc2c(OC)cccc2-3)cc1
absorption maximum (in Cc1ccccc1): 382 nm

Compound: Cc1cccn2c1cc1c3ccccc3nc(-c3ccc(Cl)o3)c12
absorption maximum (in CS(C)=O): 405 nm

Compound: COC(=O)c1nc2c(N)nc(N(C)C)nc2n1Cc1ccccc1
absorption maximum (in C1COCCO1): 340 nm
absorption maximum (in CC#N): 342 nm
absorption maximum (in CO): 345 nm
absorption maximum (in ClCCl): 338 nm

Compound: c1ccc(-c2nc3sc4ccccc4c3s2)cc1
absorption maximum (in CS(C)=O): 348 nm

Compound: C(/C=C/c1ccc(-n2c3ccccc3c3ccccc32)cc1)=C\c1ccncc1
absorption maximum (in C1COCCO1): 356 nm
absorption maximum (in CC#N): 350 nm
absorption maximum (in CCCCCCC): 360 nm
absorption maximum (in CO): 353 nm

Compound: CCOC(=O)/C(C)=C/C1=C(c2ccc(C)cc2)C2=Nc3c(-c4ccc(C)cc4)c(-c4ccc(OC)cc4)c(-c4ccc(C)cc4)n3[B-](F)(F)[N+]2=C1c1ccc(C)cc1
absorption maximum (in ClC(Cl)Cl): 670 nm

Compound: C[n+]1c2c(c(-c3ccccc3)c3c1CCCC3)CCCC2
absorption maximum (in CCO): 340.03 nm

Compound: Cc1cc(C)c(B(c2ccc(-c3ccc(-c4nc5c6ccccc6c6ccccc6c5[nH]4)cc3)cc2)c2c(C)cc(C)cc2C)c(C)c1
absorption maximum (in C1CCOC1): 375 nm
absorption maximum (in CC(C)=O): 373 nm
absorption maximum (in CS(C)=O): 378 nm
absorption maximum (in Cc1ccccc1): 374 nm
absorption maximum (in ClCCl): 371 nm

Compound: CCCCCCN1C(=O)c2cccc3c(-c4ccc(-c5cc(-c6ccc(Cl)cc6)nn5-c5ccccc5)s4)ccc(c23)C1=O
absorption maximum (in ClCCl): 389 nm

Compound: F[B-]1(F)OC(c2ccc(C(F)(F)F)cc2)=Cc2ccc3ccccc3[n+]21
absorption maximum (in ClC(Cl)Cl): 424 nm

Compound: N#Cc1ccc(-n2c(-c3ccc(-c4ccc(-c5nc6c7ccccc7c7ccccc7c6n5-c5ccc(C#N)c6ccccc56)cc4)cc3)nc3c4ccccc4c4ccccc4c32)c2ccccc12
absorption maximum (in ClCCl): 340 nm

Compound: CC1=[N+]2C(=C(c3ccc(C(=C(c4ccccc4)c4ccccc4)c4ccccc4)cc3)c3ccc(C)n3[B-]2(F)F)C=C1
absorption maximum (in C1CCOC1): 511 nm

Compound: O=c1c2ccccc2nc2ccc(-c3ccc(N(c4ccccc4)c4ccccc4)cc3)cn12
absorption maximum (in ClCCl): 355 nm

Compound: CN(C)c1ccc(/C=C/C(=O)O)cc1
absorption maximum (in C1CCCCC1): 358 nm
absorption maximum (in C1CCOC1): 358 nm
absorption maximum (in C1COCCO1): 356 nm
absorption maximum (in CC#N): 364 nm
absorption maximum (in CCCCO): 356 nm
absorption maximum (in CCCO): 355 nm
absorption maximum (in CCOC(C)=O): 358 nm
absorption maximum (in CO): 357 nm
absorption maximum (in Cc1ccccc1): 362 nm
absorption maximum (in O): 323 nm
absorption maximum (in c1ccccc1): 365 nm

Compound: CN(C)c1ccc(-c2ccc(-c3nc(C#N)c(C#N)n3C)cc2)cc1
absorption maximum (in C1CCCCC1): 333 nm
absorption maximum (in CC#N): 336 nm
absorption maximum (in CO): 336 nm
absorption maximum (in ClC(Cl)Cl): 348 nm

Compound: O=C(O)CCCCCn1c2ccccc2c(=O)c2cc(S(=O)(=O)O)ccc21
absorption maximum (in O): 409 nm

Compound: COc1ccc(/C=C(\C#N)c2nc(-c3ccc(OC)cc3)cs2)cc1
absorption maximum (in CC#N): 380 nm

Compound: CCCCCCCCCCCCN1C(=O)c2ccc3c4ccc5c6c(ccc(c7ccc(c2c37)C1=O)c64)C(=O)NC5=O
absorption maximum (in CN(C)C=O): 522 nm

Compound: COc1cccc2oc(-c3cc4c(OC)cccc4oc3=O)cc12
absorption maximum (in CC#N): 383 nm
absorption maximum (in CCOC(C)=O): 385 nm
absorption maximum (in CS(C)=O): 389 nm
absorption maximum (in Cc1ccccc1): 389 nm
absorption maximum (in O): 384 nm

Compound: COc1ccc(C#Cc2ccccc2C#Cc2ccc(OC)cc2)cc1
absorption maximum (in CC#N): 320 nm

Compound: COc1ccc(-c2sc3c(-c4ccc(OC)cc4)c4n(c3c2-c2ccc(OC)cc2)[B-](F)(F)[N+]2=Cc3c(-c5ccc(OC)cc5)c5sc(-c6ccc(OC)cc6)c(-c6ccc(OC)cc6)c5n3[B-](F)(F)[N+]2=C4)cc1
absorption maximum (in CC#N): 587 nm
absorption maximum (in CCCCCC): 595 nm
absorption maximum (in CN(C)C=O): 593 nm
absorption maximum (in Cc1ccccc1): 610 nm
absorption maximum (in ClCCl): 600 nm

Compound: CN(C)c1ccc(C2=Cc3cccc[n+]3[B-](F)(F)O2)cc1
absorption maximum (in C1CCOC1): 420 nm
absorption maximum (in C1COCCO1): 417 nm
absorption maximum (in CC1CCCCC1): 413 nm
absorption maximum (in CC#N): 417 nm
absorption maximum (in CCOC(C)=O): 416 nm
absorption maximum (in CCOCC): 413 nm
absorption maximum (in CN(C)C=O): 423 nm
absorption maximum (in CO): 418 nm
absorption maximum (in COC(C)=O): 417 nm
absorption maximum (in ClC(Cl)Cl): 426 nm

Compound: CC(=O)Nc1ccc(C2=C/C(=C\c3ccc(C#N)cc3)C(=O)N2CC(C)C)cc1
absorption maximum (in C1COCCO1): 450 nm
